{"source": "patent US12377601B2", "about": "“Fast-eluting three-dimensionally molded object, filament for fast-eluting three-dimensionally molded object, and material for fast-eluting three-dimensionally molded object” (ASTELLAS PHARMA INC., priority 2016, dated 2025)", "test": "Solubility of the active component in Japanese Pharmacopoeia dissolution test fluids", "type": "physicochemical", "method": "As specific materials, N^2-[(2E)-3-(4-chlorophenyl)-2-propenoyl]-N-[2-oxo-2-(4-{[6-(trifluoromethyl)pyrimidine-4-yl]oxy}piperidine-1-yl)ethyl]-3-pyridine-2-yl-L-alaninamide (manufactured by Astellas Pharma Inc., a solubility to a dissolution test 1st fluid of the Japanese Pharmacopoeia: >100 µM, a solubility to a dissolution test 2nd fluid of the Japanese Pharmacopoeia: 23.2 µM, hereinafter abbreviated as a compound A) was selected as an active component, Poly(vinyl alcohol) [MW 6000] (manufactured by Polysciences, Inc., the same hereinafter unless otherwise specified) was selected as a thermoplastic polymer, maltitol (SweetPearl P200, manufactured by Roquette, the same hereinafter unless otherwise specified) was selected as a sugar alcohol, and Triethyl Citrate (manufactured by Tokyo Chemical Industry Co., Ltd., the same hereinafter unless otherwise specified) was selected as a plasticizer component.", "note": "Where two headings read alike, the source gives them in different places.", "data": [{"smiles": "O=C(/C=C/c1ccc(Cl)cc1)N[C@@H](Cc1ccccn1)C(=O)NCC(=O)N1CCC(Oc2cc(C(F)(F)F)ncn2)CC1", "note": "[compound A, N^2-[(2E)-3-(4-chlorophenyl)-2-propenoyl]-N-[2-oxo-2-(4-{[6-(trifluoromethyl)pyrimidine-4-yl]oxy}piperidine-1-yl)ethyl]-3-pyridine-2-yl-L-alaninamide]", "values": [{"measurement": "solubility", "setting": "dissolution test 1st fluid of the Japanese Pharmacopoeia, pH 1.2, simulated gastric fluid, read-out: solubility to a dissolution test 1st fluid of the Japanese Pharmacopoeia", "result": "> 100", "unit": "µM"}, {"measurement": "solubility", "setting": "dissolution test 2nd fluid of the Japanese Pharmacopoeia, pH 6.8, aqueous buffer, read-out: solubility to a dissolution test 2nd fluid of the Japanese Pharmacopoeia", "result": 23.2, "unit": "µM"}]}]}
